Data: ChEMBL document CHEMBL5724796, “Tm Shift (DSF) assay results for EUbOPEN Chemogenomics Library” (2024)

Assays:
Peregrin (Homo sapiens) = biological target: T1, Peregrin (Homo sapiens) (UniProt P55201); conditions: Compound concentration 20.0 uM
T1 sequence (whole entry): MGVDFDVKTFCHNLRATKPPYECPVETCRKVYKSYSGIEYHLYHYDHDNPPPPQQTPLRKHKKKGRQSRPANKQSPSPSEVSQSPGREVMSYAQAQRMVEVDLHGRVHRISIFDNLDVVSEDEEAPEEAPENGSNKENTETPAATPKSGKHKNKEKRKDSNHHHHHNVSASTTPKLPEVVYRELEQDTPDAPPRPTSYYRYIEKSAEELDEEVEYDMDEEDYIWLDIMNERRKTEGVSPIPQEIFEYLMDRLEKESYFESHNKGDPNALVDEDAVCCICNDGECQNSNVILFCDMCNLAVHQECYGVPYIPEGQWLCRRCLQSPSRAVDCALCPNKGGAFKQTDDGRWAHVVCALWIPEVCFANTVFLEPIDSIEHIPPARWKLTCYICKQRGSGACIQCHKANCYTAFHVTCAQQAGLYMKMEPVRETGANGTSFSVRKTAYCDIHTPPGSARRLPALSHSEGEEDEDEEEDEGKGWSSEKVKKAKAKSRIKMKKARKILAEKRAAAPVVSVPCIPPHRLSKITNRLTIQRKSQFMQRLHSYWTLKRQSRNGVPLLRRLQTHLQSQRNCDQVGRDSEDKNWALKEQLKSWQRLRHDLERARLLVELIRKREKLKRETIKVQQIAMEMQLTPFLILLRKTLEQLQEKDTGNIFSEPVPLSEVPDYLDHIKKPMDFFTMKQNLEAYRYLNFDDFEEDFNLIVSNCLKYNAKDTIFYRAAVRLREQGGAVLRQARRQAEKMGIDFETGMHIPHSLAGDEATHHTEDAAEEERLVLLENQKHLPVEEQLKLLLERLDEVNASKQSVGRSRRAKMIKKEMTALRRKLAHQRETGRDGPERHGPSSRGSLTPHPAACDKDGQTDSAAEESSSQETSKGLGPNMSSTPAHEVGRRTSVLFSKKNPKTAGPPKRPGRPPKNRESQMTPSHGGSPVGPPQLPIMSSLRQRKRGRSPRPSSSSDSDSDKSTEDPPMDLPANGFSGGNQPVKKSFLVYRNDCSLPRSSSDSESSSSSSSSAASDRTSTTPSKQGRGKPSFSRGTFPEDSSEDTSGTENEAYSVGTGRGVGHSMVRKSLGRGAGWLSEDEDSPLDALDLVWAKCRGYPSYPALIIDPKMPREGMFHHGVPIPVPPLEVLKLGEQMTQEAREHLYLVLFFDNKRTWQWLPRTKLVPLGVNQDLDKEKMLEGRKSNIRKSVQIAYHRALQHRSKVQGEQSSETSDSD

[1] = biological target: Fibroblast growth factor receptor 2 (Homo sapiens) (UniProt P21802); conditions: Compound concentration 20.0 uM
Sequence of Fibroblast growth factor receptor 2 (Homo sapiens) (P21802 22-821 limits assumed): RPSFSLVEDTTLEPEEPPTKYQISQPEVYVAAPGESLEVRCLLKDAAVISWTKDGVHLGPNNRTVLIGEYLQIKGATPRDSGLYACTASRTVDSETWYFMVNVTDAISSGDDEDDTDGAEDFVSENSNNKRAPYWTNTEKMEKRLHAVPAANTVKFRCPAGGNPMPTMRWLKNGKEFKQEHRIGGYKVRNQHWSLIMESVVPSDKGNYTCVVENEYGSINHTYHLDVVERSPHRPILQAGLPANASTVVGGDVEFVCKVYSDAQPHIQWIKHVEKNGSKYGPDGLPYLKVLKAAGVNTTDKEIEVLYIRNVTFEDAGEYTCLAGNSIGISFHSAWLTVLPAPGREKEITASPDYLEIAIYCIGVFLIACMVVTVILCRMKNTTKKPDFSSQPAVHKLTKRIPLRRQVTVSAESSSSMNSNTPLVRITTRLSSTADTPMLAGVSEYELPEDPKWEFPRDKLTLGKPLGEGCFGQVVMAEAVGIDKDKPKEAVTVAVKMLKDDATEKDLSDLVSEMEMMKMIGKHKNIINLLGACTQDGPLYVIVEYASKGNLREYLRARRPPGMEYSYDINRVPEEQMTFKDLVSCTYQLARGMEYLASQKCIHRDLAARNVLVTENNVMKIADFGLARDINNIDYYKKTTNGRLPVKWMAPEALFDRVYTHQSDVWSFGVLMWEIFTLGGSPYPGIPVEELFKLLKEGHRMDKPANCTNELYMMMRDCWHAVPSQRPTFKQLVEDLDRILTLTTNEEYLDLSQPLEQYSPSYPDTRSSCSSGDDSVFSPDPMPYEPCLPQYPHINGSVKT
Description: Thermal Shift Assay. Domain: start/stop: T457-E768

Compound	ΔTm (Peregrin (Homo sapiens)) [°C]	ΔTm [1] [°C]	ΔTm (Peregrin (Homo sapiens); tested as the 2H-labelled form) [°C]	ΔTm ([1]; tested as the 2H-labelled form) [°C]
COc1cc2c(cc1-c1c(C)noc1C)[nH]c1nc(C)nc(Nc3cc(C4CC4)nn3C)c12	1.07	-0.94		
CCOC(=O)c1ccc(-c2ccc(OC(=O)N(C)Cc3cccc(-c4ccncc4)c3)cc2)cc1	3.12	-0.28		
O=C(O)c1cccc(-c2ccc(-c3cn(C(=O)N4CCCCC4Cc4ccccc4)nn3)cc2)c1 (configuration not stated)	-2.81	-0.39		
COc1cc2c(NC3CCN(C)CC3)nc(N3CCCN(C)CC3)nc2cc1OCCCN(C)C	-1.21	0.15		
CC#CCn1c(N2CCC[C@@H](N)C2)nc2c1c(=O)n(Cc1nc(C)c3ccccc3n1)c(=O)n2C	0.04	0.28		
N[C@](CCCCB(O)O)(CCN1CCCCC1)C(=O)O	2.66	0.8		
Fc1ccc(C(OCCN2CCN(CCCc3ccccc3)CC2)c2ccc(F)cc2)cc1	0.78	-0.47		
CC1=NN(c2ccc(C(=O)O)cc2)C(=O)/C1=C/c1ccc(-c2cc(C)c(C)cc2[N+](=O)[O-])o1	-1.58	0.86		
CN1[C@@H]2CC[C@H]1C[C@@H](OC(c1ccc(F)cc1)c1ccc(F)cc1)C2	-0.08	-0.72		
C[C@]1(c2nc3c(C(N)=O)cccc3[nH]2)CCCN1	1.27	-0.4		
CNCc1ccc(-c2[nH]c3cc(F)cc4c3c2CCNC4=O)cc1	3.14	-0.11		
CC1(C)Cn2nc(-c3ccc(F)cn3)c(-c3ccnc4[nH]ncc34)c2CO1			-1.29	0.38
CC#C[C@]1(O)CC[C@H]2[C@@H]3CCC4=CC(=O)CCC4=C3[C@@H](c3ccc(N(C)C)cc3)C[C@@]21C	-2.63	0.14		
N#Cc1cc2cc(CN3CCC(Nc4ncnc5sc(CC(F)(F)F)cc45)CC3)ccc2[nH]1	1.21	0.16		
O=C(NNc1ccccn1)c1ccccn1	0.74	0.02		
Cn1c(NCCN(CCO)CCCc2ccc([N+](=O)[O-])cc2)cc(=O)n(C)c1=O	1.28	0.47		

Compound	ΔTm (Peregrin (Homo sapiens)) [°C]	ΔTm [1] [°C]	ΔTm (Peregrin (Homo sapiens); tested as the 2H-labelled form) [°C]	ΔTm ([1]; tested as the 2H-labelled form) [°C]
C=CCO/N=C1\c2ccccc2-c2nc(C#N)c(C#N)nc21	2.37	0.66		
N#C[C@@H]1CCCN1C(=O)[C@@H]1CCCN1C(=O)CCCc1ccccc1	-1.55	0.84		
CC(C)(OCc1cc(-c2cccc(OC3CC3)c2)n(-c2ccccc2Cl)n1)C(=O)O	0.83	-0.52		
Cc1[nH]c2c(N3CCCCC3)c(-c3ccccc3)nn2c(=O)c1-c1ccc(O)cc1	-0.91	0.5		
Cc1nc(-c2cnn(C)c2-c2ccc(C(F)(F)F)cn2)c2c(N3CCC3)ncnn12	0.67	0.06		
CS(=O)(=O)N1CCN(C(=O)c2cnc3ccc(F)cc3c2N2CCC(C#N)(c3ccccc3)CC2)CC1	1.45	-4.51		
CCc1ccccc1NC(=O)CSC(=O)NNC(=O)[C@H](Cc1c[nH]c2ccccc12)NC(=O)OC(C)(C)C	-6.08	-9.39		
O=C(Nc1cc(C(F)F)ns1)Nc1cc(F)ncc1CO	3.9	-0.3		
NC(=O)c1cnc(N[C@@H]2CCCC[C@@H]2N)nc1Nc1cccc(-n2nccn2)c1	-1.09	0.98		
CC(=O)OCCN1C(=O)c2c(C)nc3ccc(S(=O)(=O)N4CCOCC4)cc3c2C1=O	-0.89	0.68		
O=C1COc2c(cccc2[C@@H](O)CNCCN(C(=O)CCNCCc2ccc(Cl)c(Cl)c2)C2CCCCC2)N1	-1.84	0.36		
NS(=O)(=O)OC[C@H]1C[C@@H](Nc2ncncc2C(=O)c2ccn(Cc3cccc(Br)c3)n2)C[C@@H]1O	1.11	-0.38		
COc1ccccc1[C@H]1[C@H](C(=O)O)[C@H](c2ccccc2OC)[C@H]1C(=O)Oc1cccc2ccccc12	0.27	-0.72		
CN(CCCCCCNc1ccnc2cc(Cl)ccc12)CCCCCCNc1ccnc2cc(Cl)ccc12	0.99	0.43		
COC1CCN(C(=O)c2cc(Cc3n[nH]c(=O)c4ccccc34)ccc2F)CC1	1.51	-0.21		
